Data reported in paper PMC9297976 (Journal of Applied Toxicology, 2021).

Legend:
medaka Esr1 (mEsr1) [1] = target: T1, medaka Esr1 (mEsr1) (Oryzias latipes, UniProt P50241); assay: Medaka Esr1 reporter gene assay, antagonist assay; format: cell-based, Japanese medaka (Oryzias latipes); conditions: E2 spiked at 1.0 nM (B); MAC = 1.0 × 10^−5 M
T1 sequence (P50241 1-620): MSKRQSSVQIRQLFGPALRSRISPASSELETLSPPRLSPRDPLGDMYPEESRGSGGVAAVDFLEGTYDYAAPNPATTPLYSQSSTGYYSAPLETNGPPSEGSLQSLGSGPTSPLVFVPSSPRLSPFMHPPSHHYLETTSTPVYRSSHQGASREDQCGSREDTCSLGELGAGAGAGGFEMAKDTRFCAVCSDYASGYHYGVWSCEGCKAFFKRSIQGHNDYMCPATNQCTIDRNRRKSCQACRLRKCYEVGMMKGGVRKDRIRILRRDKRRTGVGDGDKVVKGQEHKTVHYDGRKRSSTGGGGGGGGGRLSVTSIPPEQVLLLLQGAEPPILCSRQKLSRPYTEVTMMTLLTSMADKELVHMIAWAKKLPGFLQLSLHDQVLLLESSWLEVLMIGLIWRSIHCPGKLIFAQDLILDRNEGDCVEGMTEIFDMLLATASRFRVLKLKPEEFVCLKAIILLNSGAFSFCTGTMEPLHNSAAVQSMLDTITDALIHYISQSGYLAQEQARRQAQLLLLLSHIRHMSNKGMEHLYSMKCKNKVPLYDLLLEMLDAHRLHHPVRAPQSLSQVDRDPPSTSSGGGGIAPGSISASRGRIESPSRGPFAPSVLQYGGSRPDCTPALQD

medaka Esr1 (mEsr1) [2] = target: T1, medaka Esr1 (mEsr1); assay: cell-based; parameters: species or system Japanese medaka (Oryzias latipes)
medaka ARβ (mArβ) [3] = target: T2, medaka ARβ (mArβ) (Oryzias latipes, UniProt D1MV73); assay: Medaka ARβ reporter gene assay, agonist assay; format: cell-based, Japanese medaka (Oryzias latipes)
T2 sequence (D1MV73 1-744): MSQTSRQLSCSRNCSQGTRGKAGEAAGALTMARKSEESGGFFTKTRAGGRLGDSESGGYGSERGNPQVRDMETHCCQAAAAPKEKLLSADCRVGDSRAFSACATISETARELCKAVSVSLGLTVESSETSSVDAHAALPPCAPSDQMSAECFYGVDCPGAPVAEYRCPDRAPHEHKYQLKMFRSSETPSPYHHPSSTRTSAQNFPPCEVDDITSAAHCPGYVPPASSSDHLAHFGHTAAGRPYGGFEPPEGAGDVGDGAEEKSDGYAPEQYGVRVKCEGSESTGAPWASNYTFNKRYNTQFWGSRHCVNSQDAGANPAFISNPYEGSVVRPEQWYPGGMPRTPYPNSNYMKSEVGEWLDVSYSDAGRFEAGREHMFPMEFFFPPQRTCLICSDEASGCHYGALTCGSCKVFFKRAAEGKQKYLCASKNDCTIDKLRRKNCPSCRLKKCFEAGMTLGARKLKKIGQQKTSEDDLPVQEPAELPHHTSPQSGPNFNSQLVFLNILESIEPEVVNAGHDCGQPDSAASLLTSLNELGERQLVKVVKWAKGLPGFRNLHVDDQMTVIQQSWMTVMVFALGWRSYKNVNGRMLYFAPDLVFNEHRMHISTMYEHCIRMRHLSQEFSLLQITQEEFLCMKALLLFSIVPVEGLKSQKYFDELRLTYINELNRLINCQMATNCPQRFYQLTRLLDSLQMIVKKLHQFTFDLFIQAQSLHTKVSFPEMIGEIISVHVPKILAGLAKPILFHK

medaka ARβ (mArβ) [4] = target: T2, medaka ARβ (mArβ); assay: Medaka ARβ reporter gene assay, antagonist assay; format: cell-based, Japanese medaka (Oryzias latipes)
[5] = system: Japanese medaka (Oryzias latipes); assay: Fish Short‐Term Reproduction Assay; format: in vivo; conditions: for GSI Female / GSI Male / HSI Female / HSI Male / Length Female / Length Male / Weight Female / Weight Male: completion of exposure
[6] = measured concentration 25.3 μg/L
[7] = measured concentration 82.3 μg/L
[8] = measured concentration 250 μg/L

Oc1cccc2ccccc12 [Chemical 1NT, 1‐Naphtol]
Antagonistic activity (medaka Esr1 (mEsr1) [1]): NE (MAC = 1.0 × 10^−5 M)^(B)
In vitro positive: Esr (medaka Esr1 (mEsr1) [2]; mode of action in which EC50 or PC10 was obtained in RGA): Esr
EC50 (medaka Esr1 (mEsr1) [2]; read-out: Agonistic activity EC50, HEK293 cells): 78 µM
Agonistic activity PC10 (medaka ARβ (mArβ) [3]; HepG2 cells, concentration with 10% of maximum activity of 11KT): PC10 = 3.3 × 10^−5 M
Agonistic activity on mArβ (in words) (medaka ARβ (mArβ) [3]; only PC10 and not EC50 could be estimated): positive agonistic activity
Antagonistic activity (medaka ARβ (mArβ) [4]; 11‐KT spiked at 10 nM (C), MAC = 1.0 × 10^−4 M): NE (MAC = 1.0 × 10^−4 M)^(C)

CC(C)(C)CC(C)(C)c1ccc(O)cc1 [Chemical 4tOP, 4‐tert‐Octylphenol]
Fertility rate ([5]; 25.3 μg/L measured, 21 d): 91 ± 5.1%
Hepatic VTG, female ([5]; 25.3 μg/L measured, 21 d): 3,710 ± 617 ng/mg‐liver
Hepatic VTG, male ([5]; 25.3 μg/L measured, 21 d): 3.2 ± 2.2 ng/mg‐liver
Mortality ([5]; 25.3 μg/L measured, 21 d): 0.0%
Mortality, number of dead fish ([5]; 25.3 μg/L measured, 21 d): 0
Number of fertilized eggs (per female per day) ([5]; 25.3 μg/L measured, 21 d): 24 ± 3.5
Number of total eggs (per female per day) ([5]; 25.3 μg/L measured, 21 d): 26 ± 3.2
SSC female (joint plates with papillary processes) ([5]; 25.3 μg/L measured, 21 d): 0 ± 0
SSC male (joint plates with papillary processes) ([5]; 25.3 μg/L measured, 21 d): 99 ± 4.1
Fertility rate ([5]; 82.3 μg/L measured, 21 d): 92 ± 2.1%
Hepatic VTG, female ([5]; 82.3 μg/L measured, 21 d): 4,380 ± 1,350 ng/mg‐liver
Mortality ([5]; 82.3 μg/L measured, 21 d): 4.2%
Mortality, number of dead fish ([5]; 82.3 μg/L measured, 21 d): 1
Number of fertilized eggs (per female per day) ([5]; 82.3 μg/L measured, 21 d): 24 ± 1.5
Number of total eggs (per female per day) ([5]; 82.3 μg/L measured, 21 d): 27 ± 1.3
SSC female (joint plates with papillary processes) ([5]; 82.3 μg/L measured, 21 d): 0 ± 0
Hepatic VTG, male ([5]; 82.3 μg/L measured, 21 d, sig. ↑ vs control): 5.6 ± 1.9 ng/mg‐liver
Fertility rate ([5]; 250 μg/L measured, 21 d): 89 ± 3.3%
Hepatic VTG, female ([5]; 250 μg/L measured, 21 d): 5,290 ± 2030 ng/mg‐liver
Mortality ([5]; 250 μg/L measured, 21 d): 0.0%
Mortality, number of dead fish ([5]; 250 μg/L measured, 21 d): 0
Number of fertilized eggs (per female per day) ([5]; 250 μg/L measured, 21 d): 21 ± 2.6
Number of total eggs (per female per day) ([5]; 250 μg/L measured, 21 d): 23 ± 2.6
SSC female (joint plates with papillary processes) ([5]; 250 μg/L measured, 21 d): 0 ± 0
SSC male (joint plates with papillary processes) ([5]; 250 μg/L measured, 21 d): 98 ± 8.5
LOEC, elevated hepatic VTG in males ([5]; 21 d): 82.3 µg/L
LOECREPRO ([5]; LOEC on reproduction (fecundity and/or fertility)): ND (>250) μg/L
minimal effective concentration ([5]; Oryzias latipes, 504 h, read-out: LOECmVTG): 0.0823 µg/mL
LOECTOX ([5]; lowest observed effect concentration on mortality): ND (>250) μg/L
GSI Female [5, 6]: 11.4 ± 1.6%
GSI Male [5, 6]: 0.83 ± 0.11%
HSI Female [5, 6]: 4.6 ± 0.82%
HSI Male [5, 6]: 2.1 ± 0.16%
Length Female [5, 6]: 37.8 ± 0.5 mm
Length Male [5, 6]: 37.0 ± 0.9 mm
Weight Female [5, 6]: 625 ± 55 mg
Weight Male [5, 6]: 608 ± 31 mg
GSI Female [5, 7]: 10.7 ± 0.4%
GSI Male [5, 7]: 0.81 ± 0.08%
HSI Female [5, 7]: 4.1 ± 0.58%
HSI Male [5, 7]: 2.6 ± 0.10%
Length Female [5, 7]: 37.0 ± 0.2 mm
Length Male [5, 7]: 37.9 ± 0.6 mm
Weight Female [5, 7]: 599 ± 16 mg
Weight Male [5, 7]: 630 ± 44 mg
GSI Female [5, 8]: 11.1 ± 2.0%
GSI Male [5, 8]: 0.81 ± 0.08%
HSI Female [5, 8]: 4.5 ± 0.29%
HSI Male [5, 8]: 2.9 ± 0.28%
Length Female [5, 8]: 36.7 ± 0.5 mm
Length Male [5, 8]: 37.4 ± 0.4 mm
Weight Female [5, 8]: 605 ± 10 mg
Weight Male [5, 8]: 626 ± 21 mg
Agonistic activity (medaka ARβ (mArβ) [3]; MAC = 1.0 × 10^−5 M): NE (MAC = 1.0 × 10^−5 M)
Antagonistic activity (medaka ARβ (mArβ) [4]; 11‐KT spiked at 50 nM (D), MAC = 1.0 × 10^−5 M): NE (MAC = 1.0 × 10^−5 M)^(D)

C[C@]12CC(=O)[C@H]3[C@@H](CCC4=CC(=O)CC[C@@]43C)[C@@H]1CC[C@@H]2O [Chemical 11KT, 11‐ketotestosterone, reference compound]
EC50 (medaka ARβ (mArβ) [3]; read-out: Agonistic activity EC50, geometric mean, positive control, n = 5): 0.0058 µM
